Measured values taken from patent US20240261474A1, “BIODEGRADABLE TISSUE SCAFFOLD WITH SECONDARY MATRIX TO HOST WEAKLY ADHERENT CELLS” (THE U.S.A., as represented by the Secretary, Department of …, priority 2021, published 2024).
“Also recorded” adds a separate entry of the source.

System: acid phosphatase
Assay: Acid phosphatase activity in lysates of treated RPE cells (p-nitrophenyl phosphate)
Assay type: cell-based, human
Conditions: compared with DMSO- or endo-IWR-1-treated cells
Procedure: Acid phosphatase has higher expression in the macula (Boulton et al., Br. J. Opthalm. 78:125-9, doi: 10.1136/bjo.78.2.125, 1994). This enzyme has an important role in photoreceptor outer segment digestion. The acid phosphatase activity was determined in cells treated with DMSO, AGN 193109 or endo-IWR-1. RPE cells were lysed in distilled water to extract the enzyme. The lysates were then incubated with p-nitrophenyl phosphate, a phosphatase substrate that turn yellow when dephosphorylated by acid phosphatase. The color of the solution was measured with a spectrophotometer to estimate the enzyme activity.

Compound: Cc1ccc(C2=CCC(C)(C)c3ccc(C#Cc4ccc(C(=O)O)cc4)cc32)cc1 [AGN 193109, 4-[2-[5,6-Dihydro-5,5-dimethyl-8-(4-methylphenyl)-2-naphthalenyl]ethynyl]-benzoic acid]
- acid phosphatase activity: higher acid phosphatase activity than DMSO- or endo-IWR-1-treated cells; also recorded: higher acid phosphatase activity
